According to patent US9532977B2, “Controlled release oral dosage forms of poorly soluble drugs and uses thereof” (Celgene Corporation, priority 2010, dated 2017):
In brackets after ≈: the same amount, converted by molar mass.

Tests used:
[1] = aqueous room temperature solubility; type: physicochemical; conditions: for solubility: water, aqueous, room temperature
Description: (§1) The aqueous room temperature solubilities of Compounds A and Compound B is 6.9 μg/mL and 2.0 μg/mL, respectively. Daily doses of Compound A ranging from 10 mg to 100 mg per day have been administered to approximately 1000 subject in clinical studies to date. […] Therefore a controlled release dosage is clearly needed for Compound A.

[2] = pharmacokinetic parameters of Compound A in monkeys; conditions: monkey, in vivo, 10 mg/kg PO
Description: as §1

Structure (SMILES): CCOc1cc([C@@H](CS(C)(=O)=O)N2C(=O)c3cccc(NC(C)=O)c3C2=O)ccc1OC [Compound A, (S)—N-{2-[1-(3-ethoxy-4-methoxy-phenyl)-2-methanesulfonylethyl]-1,3-dioxo-2,3-dihydro-1H-isoindol-4-yl}acetamide]
- aqueous solubility of amorphous form compared to crystalline forms ([1]; amorphous form vs crystalline forms): greater aqueous solubility
- solubility [1]: 6.9 µg/mL (≈ 15 µM)
- half-life [2]: ~2 h

Structure (SMILES): CCOc1cc([C@@H](CS(C)(=O)=O)N2Cc3cccc(NC(=O)C4CC4)c3C2=O)ccc1OC [Compound B, cyclopropanecarboxylic acid {2-[(1S)-1-(3-ethoxy-4-methoxy-phenyl)-2-methanesulfonyl-ethyl]-3-oxo-2,3-dihydro-1H-isoindol-4-yl}-amide]
- solubility [1]: 2 µg/mL (≈ 4.23 µM)
